Test results reported in patent publication US20260355274A1 (Onkure, Inc., priority 2022, published 2026).

Tests used:
[1] = test system: human uveal melanoma cell line MP46; assay: 72 hour proliferation assay (CellTiter-Glo), uveal melanoma MP46; assay type: cell-based; conditions: combined with binimetinib, GNAQ/11 Q209L
Method: (§1) In particular, cells are grown in multi-well plates and incubated with the OKI-005 and binimetinib for 72 hours. The number of viable cells is determined by luminescence readout after the addition of CellTiter-Glo (CTG) dye.

[2] = test system: NCI-H358 non-small cell lung cancer cell line; assay: 72 hour proliferation assay (CellTiter-Glo), NCI-H358, KRAS G12C; assay type: cell-based
Method: as §1
(§2) FIGS. 12A, 12B and 12C illustrate the results of studies of the combination of OKI-005 with each of binimetinib, GDC-0994 and sotorasib in the NCI-H358 (NSCLC KRAS^G12C) cell line. FIGS. 12D, 12E and 12F illustrate the results of studies of the combination of OKI-005 with each of binimetinib, GDC-0994 and MRTX1133 (a KRAS^G12D Inhibitor) in the AGS (Gastric KRAS^G12D) cell line. […] In particular, cells are grown in multi-well plates and incubated with the OKI-005 and binimetinib for 72 hours. The number of viable cells is determined by luminescence readout after the addition of CellTiter-Glo (CTG) dye.

[3] = test system: AGS human gastric adenocarcinoma hyperdiploid cell line; assay: 72 hour proliferation assay (CellTiter-Glo), AGS, KRAS G12D; assay type: cell-based
Method: as §1, §2

[4] = test system: RAS mutated cell lines and RAS WT cell lines; assay: 72-hour proliferation assay, RAS mutated versus RAS wild-type cell lines; assay type: cell-based; conditions: combined with binimetinib, physiologically relevant concentrations, Day 3 compared to Day 0
Excerpt: . The RAS mutated cell lines and the RAS WT cell lines involved in this study represent conventional and well known cell lines for this purpose. See, e.g., FIG. 16.

[5] = test system: MGMT-positive human tumor cell lines versus MGMT-negative human tumor cell lines; assay: synergy in MGMT-positive versus MGMT-negative tumor cell lines; assay type: cell-based; conditions: combination with binimetinib compared to OKI-005 or binimetinib alone
[6] = metabolism to active compound; conditions: to OKI-006
Excerpt: The following figures are illustrative of specific embodiments of the invention and are not intended to otherwise limit the scope of the invention as described herein. OKI-005 is an in vitro optimized tool compound. […] In the figures, “bini” is equivalent to binimetinib (a MEK 1/2 inhibitor) and “enco” is equivalent to encorafenib (a BRAF inhibitor).

[7] = test system: SKMEL2 melanoma cell line; assay: 72 hour proliferation assay (CellTiter-Glo), SKMEL2 melanoma, NRAS mutated; assay type: cell-based; conditions: combined with binimetinib
Method: as §1
In particular, in FIGS. 9A and 9B, cells are grown in multi-well plates and incubated with the OKI-005 and binimetinib for 72 hours. The number of viable cells is determined by luminescence readout after the addition of CellTiter-Glo (CTG) dye. SEM is the standard error of the mean, […]

[8] = test system: human uveal melanoma cell line 92-1; assay: 72 hour proliferation assay (CellTiter-Glo), uveal melanoma 92-1; assay type: cell-based; conditions: combined with binimetinib, GNAQ/11 Q209L
Method: as §1

[9] = test system: pERK; assay: pERK in SKMEL2 tumors (MEKi PD); assay type: in vivo; conditions: 2 hours post dose
Excerpt: (§3) As used herein, “Son/2off” refers to a dosing schedule of 5 days on and 2 days off each week. […] Glyceraldehyde 3-phosphate dehydrogenase (GAPDH) was used as a control.

[10] = test system: SKMEL2 xenograft; assay: SKMEL2 NRAS mutated xenograft, tumor growth and regressions; assay type: in vivo, mouse; conditions: for tumor growth delay and regressions: single agent, SKMEL2 NRAS mutated xenograft
Excerpt: as §3

[11] = test system: patients with solid tumors; assay: Phase 1 clinical trials in patients with solid tumors; assay type: in vivo, human; conditions: Phase 1, single agent, oral
[12] = test system: HT29 BRAF^V600E colorectal (CRC) xenografts; assay: HT29 BRAF V600E colorectal xenografts, regressions; assay type: in vivo, mouse; conditions: combined with binimetinib and encorafenib, following two weeks of dosing
[13] = mouse body weight change, HT29 xenograft study; assay type: in vivo; conditions: combined with binimetinib and encorafenib, up to 15 days after randomization
[14] = test system: RAS-pathway mutated models; assay: preclinical activity in RAS-pathway mutated models; assay type: in vivo; conditions: in combination with binimetinib
Excerpt: As an example of the frequency of mutations associated with various cancers, mutations in NRAS account for 20% of all melanomas and affect approximately 65,000 patients worldwide. Such melanomas have a tendency to be more aggressive than their wild-type counterparts and frequently have poor outcomes. Current therapies for NRAS-mutant melanoma remain limited, with little efficacy. No targeted therapies are currently available post PD1i.

[15] = test system: advanced cancer patients; assay: maximally-tolerated dose in advanced cancer patients; assay type: in vivo, human
Excerpt: It will be appreciated that appropriate dosages can vary from patient to patient. Determining the optimal dosage will generally involve the balancing of the level of therapeutic benefit against any risk or deleterious side effects of the treatments described herein. The selected dosage level will depend on a variety of factors including, but not limited to, the activity of the particular compound, the route of administration, the time of administration, the rate of excretion of the compound, the duration of the treatment, other drugs, compounds, or materials used in combination, and the age, sex, weight, condition, general health, and prior medical history of the patient. The amount(s) of the compound(s) administered and the route of administration will ultimately be at the discretion of a physician. […] On Schedule 2, the MTD was 200 mg daily on a continuous dosing regimen and on Schedule 3, the MTD was 300 mg for 5 days on and 2 days off each week.

[16] = test system: NCI-H358 KRAS^G12C non-small cell lung cancer xenografts; assay: NCI-H358 KRAS G12C NSCLC xenografts, regressions; assay type: in vivo, mouse; conditions: combined with sotorasib, 50-day period after dosing
Excerpt: As used herein, “4on/3off” refers to a dosing schedule of 4 days on and 3 days off each week.

[17] = test system: Ac-H3K9; assay: Ac-H3K9 in SKMEL2 tumors (HDACi PD); assay type: in vivo; conditions: 2 hours post dose
Excerpt: as §3

[18] = test system: mouse xenograft models; conditions: with binimetinib
[19] = test system: KRAS^G12C pancreatic cancer; conditions: single-agent RAS pathway inhibition; cited from earlier work
[20] = test system: KRAS^G12C colorectal cancer (CRC); conditions: single-agent RAS pathway inhibition; cited from earlier work
[21] = biological target: HDAC 5 (Homo sapiens, UniProt Q9UQL6); assay: enzymatic inhibition of HDAC 5; assay type: biochemical
Excerpt: (§4) The mammalian HDACs can be divided into four classes depending on their sequence homology, sub-cellular distribution and catalytic activity. Class I, Il and IV HDACs have a Zn^2+ cofactor in the catalytic site. Class III HDACs contain sirtuins 1-7 and are NAD^+-dependent. Class I (HDACs 1, 2, 3 and 8) share the same homology as Rpd3 and are preliminarily distributed in the nucleus of normal cells. Class II HDACs can be subdivided into class IIa HDACs and class Ilb HDACs. Class IIa enzymes (HDAC 4, 5, 7 and 9) shuttle between the nucleus and cytoplasm and are located in specific tissues such as the brain, heart, and muscle. Class IIb (HDACs 6 and 10) are chiefly located in the cytoplasm.

[22] = biological target: HDAC 2 (Homo sapiens, UniProt Q92769); assay: enzymatic inhibition of HDAC 2; assay type: biochemical
Excerpt: as §4

[23] = biological target: HDAC 6 (Homo sapiens, UniProt Q9UBN7); assay: enzymatic inhibition of HDAC 6; assay type: biochemical
Excerpt: as §4

[24] = biological target: HDAC 7 (Homo sapiens, UniProt Q8WUI4); assay: enzymatic inhibition of HDAC 7; assay type: biochemical
Excerpt: as §4

[25] = biological target: HDAC 4 (Homo sapiens, UniProt P56524); assay: enzymatic inhibition of HDAC 4; assay type: biochemical
Excerpt: as §4

[26] = biological target: HDAC 9 (Homo sapiens, UniProt Q9UKV0); assay: enzymatic inhibition of HDAC 9; assay type: biochemical
Excerpt: as §4

[27] = biological target: HDAC 11 (Homo sapiens, UniProt Q96DB2); assay: enzymatic inhibition of HDAC 11; assay type: biochemical; conditions: HDAC 11, Class IV
Excerpt: as §4

[28] = biological target: HDAC 8 (Homo sapiens, UniProt Q9BY41); assay: enzymatic inhibition of HDAC 8; assay type: biochemical
Excerpt: as §4

[29] = biological target: HDAC 10 (Homo sapiens, UniProt Q969S8); assay: enzymatic inhibition of HDAC 10; assay type: biochemical; conditions: HDAC 10, Class IIb
Excerpt: as §4

[30] = test system: BRAF^V600E melanoma; conditions: single-agent RAS pathway inhibition; cited from earlier work
[31] = test system: BRAF^V600E colorectal cancer (CRC); conditions: single-agent RAS pathway inhibition; cited from earlier work
[32] = combined with binimetinib, 72 hours, KRAS

HDAC 9, sequence (Q9UKV0 whole entry): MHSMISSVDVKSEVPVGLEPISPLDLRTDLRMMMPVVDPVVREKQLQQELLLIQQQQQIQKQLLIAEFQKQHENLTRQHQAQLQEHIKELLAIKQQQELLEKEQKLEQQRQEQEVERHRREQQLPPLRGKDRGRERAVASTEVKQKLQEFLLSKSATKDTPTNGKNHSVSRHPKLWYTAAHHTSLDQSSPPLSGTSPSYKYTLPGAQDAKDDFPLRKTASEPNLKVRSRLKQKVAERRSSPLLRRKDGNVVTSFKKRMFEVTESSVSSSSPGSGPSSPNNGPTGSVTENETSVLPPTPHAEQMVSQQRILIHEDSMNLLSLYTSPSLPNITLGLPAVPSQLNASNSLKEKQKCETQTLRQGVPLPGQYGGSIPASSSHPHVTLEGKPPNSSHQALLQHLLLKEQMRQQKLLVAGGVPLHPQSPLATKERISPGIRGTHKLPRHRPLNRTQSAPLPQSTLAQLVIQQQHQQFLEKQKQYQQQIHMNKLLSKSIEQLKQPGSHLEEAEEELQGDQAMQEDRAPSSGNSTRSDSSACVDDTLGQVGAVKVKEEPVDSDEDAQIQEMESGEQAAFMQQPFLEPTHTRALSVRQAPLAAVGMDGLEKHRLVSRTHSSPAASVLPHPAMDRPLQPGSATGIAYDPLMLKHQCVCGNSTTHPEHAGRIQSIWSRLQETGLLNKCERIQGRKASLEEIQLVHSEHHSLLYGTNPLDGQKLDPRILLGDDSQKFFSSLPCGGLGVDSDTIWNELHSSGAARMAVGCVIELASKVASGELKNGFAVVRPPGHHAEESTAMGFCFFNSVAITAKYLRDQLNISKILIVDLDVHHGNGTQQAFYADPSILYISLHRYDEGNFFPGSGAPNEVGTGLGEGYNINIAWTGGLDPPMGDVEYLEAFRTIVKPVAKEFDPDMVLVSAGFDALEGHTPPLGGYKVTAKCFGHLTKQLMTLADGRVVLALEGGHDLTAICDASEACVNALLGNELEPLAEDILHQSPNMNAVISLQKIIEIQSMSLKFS
HDAC 11, sequence (Q96DB2 whole entry): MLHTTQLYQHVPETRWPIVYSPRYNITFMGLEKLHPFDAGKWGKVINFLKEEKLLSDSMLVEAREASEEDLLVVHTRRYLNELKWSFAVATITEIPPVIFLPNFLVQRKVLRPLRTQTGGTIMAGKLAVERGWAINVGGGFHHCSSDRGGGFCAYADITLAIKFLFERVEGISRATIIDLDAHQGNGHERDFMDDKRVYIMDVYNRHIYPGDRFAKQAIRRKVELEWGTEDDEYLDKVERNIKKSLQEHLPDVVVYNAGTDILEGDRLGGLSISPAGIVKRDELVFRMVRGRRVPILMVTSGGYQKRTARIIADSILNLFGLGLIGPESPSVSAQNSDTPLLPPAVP
HDAC 8, sequence (Q9BY41 whole entry): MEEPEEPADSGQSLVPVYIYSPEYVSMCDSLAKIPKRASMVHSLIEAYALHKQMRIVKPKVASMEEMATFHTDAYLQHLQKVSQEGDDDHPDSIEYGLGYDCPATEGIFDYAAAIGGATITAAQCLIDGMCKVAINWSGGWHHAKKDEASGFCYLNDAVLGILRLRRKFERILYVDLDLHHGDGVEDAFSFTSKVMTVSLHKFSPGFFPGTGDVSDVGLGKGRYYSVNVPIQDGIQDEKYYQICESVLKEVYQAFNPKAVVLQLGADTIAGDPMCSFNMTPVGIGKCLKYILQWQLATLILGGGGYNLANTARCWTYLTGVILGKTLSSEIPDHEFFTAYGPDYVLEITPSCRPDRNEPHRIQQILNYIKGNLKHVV
HDAC 6, sequence (Q9UBN7 whole entry): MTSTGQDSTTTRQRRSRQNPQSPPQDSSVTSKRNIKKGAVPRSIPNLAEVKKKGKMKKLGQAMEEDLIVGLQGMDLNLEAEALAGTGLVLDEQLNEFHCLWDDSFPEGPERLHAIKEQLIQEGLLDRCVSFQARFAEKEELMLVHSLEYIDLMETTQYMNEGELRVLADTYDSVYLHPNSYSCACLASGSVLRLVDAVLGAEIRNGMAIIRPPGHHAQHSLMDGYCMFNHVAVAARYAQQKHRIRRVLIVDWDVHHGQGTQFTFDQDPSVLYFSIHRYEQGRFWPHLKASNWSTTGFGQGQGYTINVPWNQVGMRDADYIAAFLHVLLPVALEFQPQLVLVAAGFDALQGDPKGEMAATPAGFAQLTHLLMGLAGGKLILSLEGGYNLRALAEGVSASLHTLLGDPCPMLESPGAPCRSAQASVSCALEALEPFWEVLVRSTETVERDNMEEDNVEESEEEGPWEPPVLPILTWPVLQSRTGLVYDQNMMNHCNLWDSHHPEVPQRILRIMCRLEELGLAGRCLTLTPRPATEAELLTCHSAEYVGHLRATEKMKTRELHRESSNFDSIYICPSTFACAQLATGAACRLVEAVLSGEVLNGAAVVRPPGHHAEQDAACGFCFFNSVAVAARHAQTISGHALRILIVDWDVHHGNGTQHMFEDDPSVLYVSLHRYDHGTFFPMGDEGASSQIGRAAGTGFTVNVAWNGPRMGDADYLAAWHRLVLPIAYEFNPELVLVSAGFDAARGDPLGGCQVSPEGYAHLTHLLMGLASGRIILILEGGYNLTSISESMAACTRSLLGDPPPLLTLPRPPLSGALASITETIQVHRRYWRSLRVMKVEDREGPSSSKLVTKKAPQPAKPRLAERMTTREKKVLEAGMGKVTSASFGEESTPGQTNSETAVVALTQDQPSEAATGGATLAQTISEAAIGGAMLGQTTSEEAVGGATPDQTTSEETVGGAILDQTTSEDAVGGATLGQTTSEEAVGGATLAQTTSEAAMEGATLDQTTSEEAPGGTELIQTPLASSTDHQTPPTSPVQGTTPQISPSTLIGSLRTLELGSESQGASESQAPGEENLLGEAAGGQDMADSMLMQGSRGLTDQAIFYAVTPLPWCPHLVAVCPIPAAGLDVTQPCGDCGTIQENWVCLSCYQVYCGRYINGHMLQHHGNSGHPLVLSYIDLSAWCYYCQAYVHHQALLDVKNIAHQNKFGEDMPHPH
HDAC 7, sequence (Q8WUI4 whole entry): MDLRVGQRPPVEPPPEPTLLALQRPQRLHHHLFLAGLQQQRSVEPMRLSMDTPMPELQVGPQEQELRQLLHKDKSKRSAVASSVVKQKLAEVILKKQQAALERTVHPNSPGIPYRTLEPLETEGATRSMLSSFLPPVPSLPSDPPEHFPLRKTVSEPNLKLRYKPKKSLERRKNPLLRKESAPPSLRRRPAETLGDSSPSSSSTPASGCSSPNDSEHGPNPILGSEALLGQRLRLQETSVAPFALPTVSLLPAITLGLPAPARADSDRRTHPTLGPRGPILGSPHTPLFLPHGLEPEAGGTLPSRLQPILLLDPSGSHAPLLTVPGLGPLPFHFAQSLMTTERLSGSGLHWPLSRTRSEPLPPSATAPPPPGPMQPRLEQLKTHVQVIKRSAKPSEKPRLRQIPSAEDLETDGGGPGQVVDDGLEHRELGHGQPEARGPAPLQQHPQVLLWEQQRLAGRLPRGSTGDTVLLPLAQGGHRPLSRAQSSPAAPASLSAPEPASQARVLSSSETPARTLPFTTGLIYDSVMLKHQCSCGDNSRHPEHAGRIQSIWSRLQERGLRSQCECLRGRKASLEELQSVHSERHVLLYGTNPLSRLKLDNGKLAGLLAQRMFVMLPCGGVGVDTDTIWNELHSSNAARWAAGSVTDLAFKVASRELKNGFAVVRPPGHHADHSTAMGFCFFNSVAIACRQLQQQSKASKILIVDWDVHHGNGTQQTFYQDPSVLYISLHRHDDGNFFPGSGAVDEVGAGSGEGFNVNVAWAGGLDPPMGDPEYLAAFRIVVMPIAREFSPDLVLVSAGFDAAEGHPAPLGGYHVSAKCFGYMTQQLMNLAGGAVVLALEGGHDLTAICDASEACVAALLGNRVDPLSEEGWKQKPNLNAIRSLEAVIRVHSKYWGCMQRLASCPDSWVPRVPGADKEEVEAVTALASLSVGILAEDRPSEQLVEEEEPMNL
HDAC 10, sequence (Q969S8 whole entry): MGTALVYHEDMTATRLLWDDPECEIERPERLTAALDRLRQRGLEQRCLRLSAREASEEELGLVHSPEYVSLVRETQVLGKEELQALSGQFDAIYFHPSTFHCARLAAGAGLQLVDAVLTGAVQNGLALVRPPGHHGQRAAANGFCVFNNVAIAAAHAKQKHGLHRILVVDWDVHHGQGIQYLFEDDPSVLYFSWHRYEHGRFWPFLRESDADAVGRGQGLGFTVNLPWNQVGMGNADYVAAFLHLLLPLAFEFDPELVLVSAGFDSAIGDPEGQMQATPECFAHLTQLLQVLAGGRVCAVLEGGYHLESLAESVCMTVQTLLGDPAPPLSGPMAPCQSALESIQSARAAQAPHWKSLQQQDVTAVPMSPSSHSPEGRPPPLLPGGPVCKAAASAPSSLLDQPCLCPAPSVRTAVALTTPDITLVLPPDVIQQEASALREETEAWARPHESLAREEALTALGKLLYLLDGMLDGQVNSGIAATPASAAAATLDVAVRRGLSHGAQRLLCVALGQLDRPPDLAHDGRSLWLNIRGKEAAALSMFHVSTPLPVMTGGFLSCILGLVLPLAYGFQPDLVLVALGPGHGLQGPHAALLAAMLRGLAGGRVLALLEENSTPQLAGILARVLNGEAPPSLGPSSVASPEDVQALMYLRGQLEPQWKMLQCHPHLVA
HDAC 2, sequence (Q92769 whole entry): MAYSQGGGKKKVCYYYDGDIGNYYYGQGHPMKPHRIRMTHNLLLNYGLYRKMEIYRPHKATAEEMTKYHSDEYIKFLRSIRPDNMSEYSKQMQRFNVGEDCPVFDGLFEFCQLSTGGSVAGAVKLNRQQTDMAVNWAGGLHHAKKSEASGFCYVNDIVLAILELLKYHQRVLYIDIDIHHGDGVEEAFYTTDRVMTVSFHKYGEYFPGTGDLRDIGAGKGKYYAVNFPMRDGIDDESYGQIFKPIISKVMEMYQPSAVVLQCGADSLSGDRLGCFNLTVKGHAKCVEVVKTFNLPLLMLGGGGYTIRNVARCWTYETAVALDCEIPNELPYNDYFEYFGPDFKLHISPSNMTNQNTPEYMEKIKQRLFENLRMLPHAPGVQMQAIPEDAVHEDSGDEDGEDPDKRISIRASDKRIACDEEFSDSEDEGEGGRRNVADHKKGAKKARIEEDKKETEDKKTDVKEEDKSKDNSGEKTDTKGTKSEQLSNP

## CCCCCCCC(=O)SCC/C=C/[C@@H]1CC(=O)NCc2nc(cs2)C(=O)NC(C)(C)C(=O)N[C@@H](C(C)C)C(=O)O1 [OKI-005]
[1]
  anti-proliferative activity, synergy: synergistic anti-proliferative activity
[2]; combined with GDC-0994, KRAS^G12C
  Loewe synergy: combination synergy was observed in all cases
[2]; [32]
  anti-proliferative activity, synergy: synergistic anti-proliferative activity
[2]; combined with binimetinib, 72 hours, KRAS^G12C
  Loewe synergy: combination synergy was observed in all cases
[2]; combined with sotorasib, KRAS^G12C
  Loewe synergy: combination synergy was observed in all cases
[3]; combined with GDC-0994, KRAS^G12D
  Loewe synergy: combination synergy was observed in all cases
[3]; combined with MRTX1133, KRAS^G12D
  Loewe synergy: combination synergy was observed in all cases
[3]; [32]
  anti-proliferative activity, synergy: synergistic anti-proliferative activity
[3]; combined with binimetinib, 72 hours, KRAS^G12D
  Loewe synergy: combination synergy was observed in all cases
[4]
  synergy, RAS mutated compared to RAS wild-type: a superior effect greater than that of either agent alone
[5]
  synergistic effects in MGMT-positive versus MGMT-negative cell lines: synergistic effects
[6]
  metabolism to active compound: metabolized to the same active compound, OKI-006
[7]; 72 hours, NRAS
  anti-proliferative activity, synergy: synergistic anti-proliferative activity
[7]; NRAS-mutated SKMEL2
  cell growth inhibition and cell death (PARP cleavage): significant cell growth inhibition and cell death
[8]
  anti-proliferative activity, synergy: synergistic anti-proliferative activity

## Cn1cnc2c(F)c(Nc3ccc(Br)cc3F)c(C(=O)NOCCO)cc21 [binimetinib, reference compound]
[9]
  on-target PD activity, pERK (MEKi PD): strong on-target PD activity
[10]
  tumor growth delay and regressions: tumor growth delay, but few regressions

## CC(C)[C@H](N)C(=O)SCC/C=C/[C@@H]1CC(=O)NCc2nc(cs2)C(=O)NC(C)(C)C(=O)N[C@@H](C(C)C)C(=O)O1.O=S(=O)(O)c1ccccc1 [OKI-179]
[11]
  pharmacodynamic activity: strong pharmacodynamic activity at tolerated doses
[12]
  regressions: significantly increased regressions compared to either OKI-179 alone or the combination of binimetinib and encorafenib
[13]
  mouse body weight loss: greater weight loss than either OKI-179 alone or the combination of binimetinib and encorafenib
[14]
  regressions: regressions in multiple RAS-pathway mutated models
[10]; combination with binimetinib versus either single agent, following two weeks of dosing
  regressions: significantly increased regressions compared to either single agent
[10]
  tumor growth delay and regressions: tumor growth delay, but few regressions
[15]; Schedule 1, oral, 4 days on and 3 days off each week
  recommended Phase 2 dose (RP2D): 300 mg
[15]; Schedule 1, oral, daily, 4 days on and 3 days off each week
  MTD: 450 mg
[15]; Schedule 2, oral, daily, continuous dosing regimen
  MTD: 200 mg
[15]; Schedule 3, oral, 5 days on and 2 days off each week
  MTD: 300 mg
[16]
  regressions: significantly increased regressions compared to either OKI-179 or sotorasib alone
[17]
  on-target PD activity, Ac-H3K9 (HDACi PD): strong on-target PD activity
[18]
  synergy at physiologically-relevant doses: synergy associated with OKI-179 and binimetinib occurs at physiologically-relevant doses of OKI-179
[6]
  metabolism to active compound: metabolized to the same active compound, OKI-006

## C=CC(=O)N1CCN(c2nc(=O)n(-c3c(C)ccnc3C(C)C)c3nc(-c4c(O)cccc4F)c(F)cc23)[C@@H](C)C1 [sotorasib]
[19]
  effectiveness: relative ineffectiveness
[20]
  effectiveness: relative ineffectiveness

## C/C=C1\NC(=O)[C@@H](CS)NC(=O)[C@@H](C(C)C)NC(=O)C[C@@H](/C=C/CCS)OC(=O)[C@H](C(C)C)NC1=O [Red-FK228, reference compound]
[21]
  IC50: > 1 µM
[22]
  IC50: 0.001 µM
[23]
  IC50: 0.226 µM
[24]
  IC50: > 1 µM
[25]
  IC50: 0.647 µM
[26]
  IC50: > 1 µM
[27]
  IC50: 0.0003 µM
[28]
  IC50: > 1 µM
[29]
  IC50: 0.0009 µM

## CCCS(=O)(=O)Nc1ccc(F)c(C(=O)c2c[nH]c3ncc(-c4ccc(Cl)cc4)cc23)c1F [vemurafenib]
[30]
  effectiveness: relative ineffectiveness
[31]
  effectiveness: relative ineffectiveness
